Key:
[1] = Drug metabolism in human hepatocytes assessed as CYP450-mediated metabolite formation at 1 uM up to 240 mins by LC-MS/MS analysis; format: ADME, cell-based; conditions: 4 h
in vitro [2] = conditions: dog, MDCK
[3] = Ratio of unbound brain to plasma concentration in iv dosed rat administered as 4 hrs infusion by equilibrium dialysis method; format: ADME, organism-based; conditions: brain and plasma, read-out: K(p,uu,brain)
physchem = conditions: buffer, pH 7.4
in vitro [4] = conditions: human, liver microsomes
[5] = Clearance in iv dosed rat administered as 4 hrs infusion; format: ADME, organism-based; conditions: in vivo
in vitro [6] = conditions: human, hepatocytes
[7] = Oral bioavailability in rat; format: ADME, organism-based; conditions: in vivo

Drug metabolism [1]: Metabolite_Detected | Papp A→B (in vitro [2]): 10 ×10⁻⁶ cm/s | Kp uu at 4 h [3]: 0.0065 | logD (physchem): 2.9 | microsomal CLint at 1 h, 1 µM (in vitro [4]): < 8 µL/min/mg | clearance [5]: 38 mL/min/kg | hepatocyte CLint at 4 h, 1 µM (in vitro [6]): 8 µL/min/1e6 cells | bioavailability [7]: 45%
Structure (SMILES): Cn1cnc(-c2ccc(OC3CCN(C(=O)Cc4ccc(OC(F)(F)F)cc4)CC3)c(C(N)=O)c2)c1

— ChEMBL document CHEMBL4190406, “Discovery of Potent, Selective, and Peripherally Restricted Pan-Trk Kinase Inhibitors for the Treatment of Pain” (J Med Chem, 2018)
